The results in this text go back to US9821002B2, “Method for alleviating radiation injury with isorhamnetin-3-O-β-D-glucoside” (Sinotai Oncology Associate., Ltd., priority 2015, dated 2017).

In one test the test system is NMuMG cells. Put plainly: Clonogenic assay after X-ray irradiation. The format is cell-based, mouse. Particulars: 30 μM, 2 h pretreatment, X-ray 2, 4, 6 Gy, colonies after two weeks. The text has this: (§1) Eight groups of BNL CL.2 cells (i.e., a normal control group referred to as Normal Control Group 1-A, an isorhamnetin-3-O-β-D-glucoside group referred to as Isorhamnetin-3-O-β-D-glucoside Group 1-A, three X-ray control groups referred to as X-Ray Control Groups 1-A to 3-A, and three experimental groups referred to as Experimental Groups 1-A to 3-A) and eight groups of NMuMG cells (i.e., a normal control group referred to as Normal Control Group 1-B, an isorhamnetin-3-O-β-D-glucoside group referred to as Isorhamnetin-3-O-β-D-glucoside Group 1-B, three X-ray control groups referred to as X-Ray Control Groups 1-B to 3-B, and three experimental groups referred to as Experimental Groups 1-B to 3-B) were prepared based on the procedure set forth in “Source and cultivation of cell lines” of “Experimental materials”. Specifically, BNL CL.2 cells in each group were cultivated using 5 mL of a corresponding medium shown in Table 1 and a 6-cm Petri dish in an amount of 2×10^5 cells per dish. Likewise, NMuMG cells in each group were cultivated using 5 mL of a corresponding medium shown in Table 1 and a 6-cm Petri dish in an amount of 2.5×10^5 cells per dish. The cultivation was conducted in an incubator (37° C., 5% CO2) for 24 hours. […]

The subject of another test is BNL CL.2 cells. Kind of test: Clonogenic assay after X-ray irradiation. The format is cell-based, mouse. Particulars: 30 μM, 2 h pretreatment, X-ray 2, 4, 6 Gy, colonies after two weeks.
Description: as §1

Consider `COc1cc(-c2oc3cc(O)cc(O)c3c(=O)c2O[C@@H]2O[C@H](CO)[C@@H](O)[C@H](O)[C@H]2O)ccc1O` [isorhamnetin-3-O-β-D-glucoside], for which the “survival fraction (clonogenic assay) versus X-ray control group” value in the test with NMuMG cells and with BNL CL.2 cells was “higher than that of the X-ray control group” throughout.
